In US20130090476A1, “Thiazolylpiperidine Derivatives as Fungicides” (priority 2009, published 2013):

Assays:
[1] = logP determination by HPLC (EEC Directive 79/831 Annex V.A8), LC-MS
[2] = system: Phytophthora infestans; experiment: whole plant or invertebrate; assay type: in vivo; conditions: in Solanum lycopersicum, 168 h, read-out: efficacy
[3] = physchem; conditions: pH 2.7
[4] = pH 2.7, log P (pH2.7), pH 2.7, value given in the preparation text
[5] = pH 2.7, logP, * acidic range, pH 2.7, 0.1% aqueous formic acid/acetonitrile

Row | SMILES | chromatographic logP [1, 4] | chromatographic logP [1, 5] | pest or weed control at 500 ppm [2] [%] | chromatographic logP ([1]; pH 7.8, logP, ** neutral range, pH 7.8, 0.001 molar aqueous ammonium bicarbonate/acetonitrile) | chromatographic logP [3]
1 | Cc1cc(C(F)(F)F)nn1CC(=O)N1CCC(c2nc(CS(=O)(=O)c3nnnn3-c3ccccc3)cs2)CC1 [Compound I-8, 2-[5-Methyl-3-(trifluoromethyl)-1H-pyrazol-1-yl]-1-[4-(4-{[(1-phenyl-1H-tetrazol-5-yl)sulphonyl]methyl}-1,3-thiazol-2-yl)piperidin-1-yl]ethanone] | 3.1 | 3.07 | ≥ 70 | – | –
2 | Cc1cc(C(F)(F)F)nn1CC(=O)N1CCC(c2nc(CS(=O)(=O)c3cccc4cccnc34)cs2)CC1 [Compound I-9, 1-(4-{4-[(Quinolin-8-ylsulphonyl)methyl]-1,3-thiazol-2-yl}piperidin-1-yl)-2-[5-methyl-3-(trifluoromethyl)-1H-pyrazol-1-yl]ethanone] | 2.63 | 2.63 | ≥ 70 | – | –
3 | Cc1cc(C(F)(F)F)nn1CC(=O)N1CCC(c2nc(CS(=O)(=O)c3cccc4ccccc34)cs2)CC1 [Compound I-10, 2-[5-Methyl-3-(trifluoromethyl)-1H-pyrazol-1-yl]-1-(4-{4-[(1-naphthylsulphonyl)methyl]-1,3-thiazol-2-yl}piperidin-1-yl)ethanone] | 3.21 | 3.19 | ≥ 70 | – | –
4 | Cc1cc(C(F)(F)F)nn1CC(=O)N1CCC(c2nc(C[S+]([O-])c3cccc4ccccc34)cs2)CC1 (centres unmarked) [Compound I-13, 2-[5-Methyl-3-(trifluoromethyl)-1H-pyrazol-1-yl]-1-(4-{4-[(1-naphthylsulphinyl)methyl]-1,3-thiazol-2-yl}piperidin-1-yl)ethanone] | 2.86 | 2.86 | ≥ 70 | – | –
5 | Cc1cc(C(F)(F)F)nn1CC(=S)N1CCC(c2nc(CSc3nnnn3-c3ccccc3)cs2)CC1 [Compound I-15, 2-[5-Methyl-3-(trifluoromethyl)-1H-pyrazol-1-yl]-1-[4-(4-{[(1-phenyl-1H-tetrazol-5-yl)sulphanyl]methyl}-1,3-thiazol-2-yl)piperidin-1-yl]ethanethione] | 3.82 | 2.82 | ≥ 70 | 2.87 | –
6 | CC(C)(C)OC(=O)N1CCC(c2nc(CSC(=N)N)cs2)CC1 [IX-1, Amino[({2-[1-(tert-butoxycarbonyl)piperidin-4-yl]-1,3-thiazol-4-yl}methyl)sulphanyl]methaniminium iodide] | – | – | – | – | 1.44
